Results as given in PubChem BioAssay (NCI).
Values joined by “and” are separate entries in the source; they are usually repeats but may differ in a detail not shown here. Equal entries are not always repeated.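 Briefly, cells in 96-well plates were exposed to five compound concentrations for 48 h, and endpoints were estimated by linear interpolation. GI50 marks 50% less growth. TGI is the concentration that stops growth completely.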

What was measured:
Experiment in all cases: DTP human tumour cell line panel, 48 h
U251 CNS = tested on: U251 CNS
MALME-3M melanoma = tested on: MALME-3M melanoma
DU-145 prostate = tested on: DU-145 prostate
RXF 393 renal = tested on: RXF 393 renal
TK-10 renal = tested on: TK-10 renal
HT29 colon = tested on: HT29 colon
NCI-H226 lung = tested on: NCI-H226 lung
786-0 renal = tested on: 786-0 renal
OVCAR-4 ovarian = tested on: OVCAR-4 ovarian
NCI-H460 lung = tested on: NCI-H460 lung

Structure (SMILES)	GI50 (U251 CNS)	TGI (U251 CNS)	GI50 (MALME-3M melanoma)	TGI (MALME-3M melanoma)	GI50 (DU-145 prostate)	TGI (DU-145 prostate) [µM]	GI50 (RXF 393 renal)	TGI (RXF 393 renal)	GI50 (TK-10 renal)	TGI (TK-10 renal)	GI50 (HT29 colon)	TGI (HT29 colon)	GI50 (NCI-H226 lung)	TGI (NCI-H226 lung)	GI50 (786-0 renal)	TGI (786-0 renal)	GI50 (OVCAR-4 ovarian)	TGI (OVCAR-4 ovarian) [µM]	GI50 (NCI-H460 lung)	TGI (NCI-H460 lung)
CCCCN(CC)CCCCCCCCCCN1CCCc2cc(OC)ccc21	2.93 µM	7.56 µM	2.33 µM	4.98 µM	6.48 µM	53	2.34 µM	4.93 µM	1.89 µM	3.91 µM	1.46 µM	4.29 µM	2.8 µM	8.16 µM	2.03 µM	3.94 µM	4.33 µM	19.6	2.52 µM	6.6 µM
O=c1[nH]c2ccccc2n2cc3ccccc3c12	3.25 µM	13.4 µM	25.1 µM	46.5 µM	7.61 µM	37.7	6.26 µM	29.9 µM	20.6 µM	36.9 µM	4.37 µM	> 100 µM	2.88 µM	13.8 µM	4.23 µM	18.1 µM	7.2 µM	89.7	7.8 µM	> 100 µM
COc1ccc(/C=C/C(=O)c2ccc(Nc3nc(Nc4ccc(F)cc4)nc(Nc4ccc(Cl)cc4)n3)cc2)cc1	49 µM	> 100 µM	> 100 µM	> 100 µM	> 100 µM	> 100	13 µM	> 100 µM	> 100 µM	> 100 µM	29.6 µM	> 100 µM	> 100 µM	> 100 µM	> 100 µM	> 100 µM	> 100 µM	> 100	9.91 µM	84.3 µM
O=C(O)c1ccc(C(=O)O)c(C(=O)O)c1.[NH-]C1CCCCC1[NH-].[Pt+2]	8.84 µM	59.1 µM	1.67 µM	22.8 µM	11.1 µM	84.1	9.32 µM	44.7 µM	25.6 µM	85.8 µM	0.998 µM	54.9 µM	2.02 µM	32.2 µM	1.99 µM	> 74.7 µM	7.73 µM	50.2	0.889 µM	19.1 µM
O=C(/C=C/c1cccc(S(=O)(=O)Nc2ccccc2)c1)NO	0.597 µM and 0.496 µM	4.38 µM and 10.7 µM	0.251 µM and 0.0447 µM	13.8 µM and 3.12 µM	0.444 µM and 0.111 µM	17.8	0.342 µM and 0.101 µM	1.79 µM and 1.88 µM	0.215 µM and 0.024 µM	3.19 µM and 1.73 µM	0.25 µM and 1.15 µM	15.9 µM and > 15.8 µM	2.34 µM and 0.694 µM	11.5 µM and 5.11 µM	2.17 µM and 0.934 µM	12.6 µM and 11.2 µM	1.98 µM and 1.08 µM	> 100	0.376 µM and 0.116 µM	34 µM and 5.42 µM
CCOc1cc(/C=C/C(=O)C(C(=O)/C=C/c2ccc(OC(=O)CNc3nnc(C)s3)c(OCC)c2)C(=O)CNc2nnc(C)s2)ccc1OC(=O)CNc1nnc(C)s1	0.976 µM	2.89 µM	2.36 µM	7.09 µM	1.72 µM	4.18	1.55 µM	4.85 µM	3.49 µM	14.4 µM	0.515 µM	1.85 µM	1.92 µM	4.54 µM	2.16 µM	5.98 µM	3.91 µM	45.1	1.97 µM	4.54 µM
O=C1/C(=C\c2ccccc2)CN(C(=O)c2ccccc2)C/C1=C\c1ccccc1	1.92 µM	4.44 µM	2.96 µM	7.17 µM	5.02 µM	16.4	1.68 µM	3.21 µM	2.83 µM	9.06 µM	1.91 µM	4.09 µM	19.3 µM	> 100 µM	2 µM	4.44 µM	2.98 µM	11.4	2.8 µM	8.48 µM
CN(CSc1ccc(Cl)cc1)c1ccc(CSc2ccc(Cl)cc2)cc1	6.87 µM	23.5 µM	12 µM	33.1 µM	6.69 µM	25.3	8.28 µM	23.6 µM	11.5 µM	31.7 µM	12.2 µM	34.2 µM	2.16 µM	6.67 µM	1.8 µM	11 µM	3.15 µM	20	3.65 µM	15.6 µM
O=C(Nc1ccc(I)cc1)c1cccc([N+](=O)[O-])c1O	3.39 µM	> 100 µM	2.47 µM	9.12 µM	6.46 µM	> 100	2.49 µM	9.09 µM	3.56 µM	> 100 µM	4.84 µM	> 100 µM	2.81 µM	33.5 µM	3.53 µM	24.2 µM	2.61 µM	25	3.86 µM	> 100 µM
Cc1cc(C(O)(c2ccc(Nc3ccccc3)cc2)c2ccc(Nc3ccc(S(=O)(=O)O)cc3)cc2)ccc1N (stereo not given)	0.772 µM	2.05 µM	1.58 µM	3.11 µM	1.32 µM	2.67	0.989 µM	2.28 µM	1.7 µM	3.77 µM	0.516 µM	2.34 µM	1.63 µM	3.42 µM	1.02 µM	2.27 µM	1.31 µM	3.39	1.32 µM	2.78 µM
NS(=O)(=O)c1ccc(N=C2C(=O)Nc3ccccc32)cc1	–	> 100 µM	–	> 100 µM	–	> 100	–	> 100 µM	–	> 100 µM	–	> 100 µM	–	> 100 µM	–	> 100 µM	–	> 100	–	> 100 µM
C/C(=N\O)c1cccc(Nc2cc(-c3ccccc3)nc3c(O)cccc23)c1	2.35 µM	15.8 µM	5.67 µM	25.4 µM	2.96 µM	16.6	1.62 µM	6.42 µM	8.44 µM	47.7 µM	12.3 µM	42.7 µM	7.37 µM	37.5 µM	3.07 µM	11.5 µM	8.19 µM	37.4	2.49 µM	17.2 µM
O=C(Cc1ccc(Nc2ccnc(C(F)(F)F)c2)cc1)N/N=C/c1ccccc1O	1.87 µM	> 54.8 µM	4.07 µM	> 38.4 µM	3.17 µM	> 58.1	3.95 µM	38.7 µM	4.43 µM	> 45.3 µM	6.53 µM	56 µM	3.85 µM	> 55.6 µM	3.59 µM	> 62.7 µM	3.29 µM	> 100	1.37 µM	10.6 µM
Oc1ccc(Cc2ccc(O)c(C3CC(c4ccc(Cl)cc4)=NN3)c2)cc1C1CC(c2ccc(Cl)cc2)=NN1 (stereo not given)	2.06 µM	33.6 µM	5.03 µM	> 100 µM	3.22 µM	> 100	3.48 µM	> 38.8 µM	4.79 µM	> 100 µM	6.41 µM	> 44.6 µM	4.29 µM	> 44.3 µM	3.53 µM	> 40.2 µM	2.97 µM	> 44.6	2.19 µM	8.87 µM
